A short description of data set [1]: Inhibition of isolation induced aggression in mice. The format is in vivo, mouse (male NMRI/BOM, SPF). As to conditions: for ED50: Mus musculus. From the text: This test is used to evaluate the ability of a test substance to inhibit isolation induced aggressive behaviour in mice and is considered to be a test model for anxiolytic effect. The method is a modified version of the method described by McMillen et al. in Drug Develop. Research 12, 53-62, 1988.
Male mice (NMRI/BOM,SPF) weighing 16-18 g were used. The mice were housed individually in macrolon cages for 3 weeks before training to attack an intruder mouse. The mice were trained daily for a period of 1-2 weeks until a satisfactory respons was obtained. During the first days the mice were trained against each other. When a satisfactory respons was obtained group-housed mice were used as intruders. The time elapsed until attack was recorded. The intruder mouse was removed as soon as an attack had occured or after 180 sec. After the training period 60-70 percent of the mice had latencies of less than 10 sec.
The mice were pretested before drug treatment. Only mice attacking within 25 sec. were used. The animals were treated with test substance or saline. The mice were tested 30 or 120 minutes later, respectively. Nonspecific motoric effects were also recorded. 8 mice were used per group.
The results were stated as fractions of mice with attack latencies greater than or equal to a threshold value. As threshold values were used 180 and 90 sec. ED50 values were calculated by log-probit analysis.
The results are given in the following table as ED50 values in μmol/kg. The known compounds diazepam, buspirone and ritanserin were included in the test for the purpose of comparison.

A further data set in a line: in vivo. The settings on record: sc. The source says:
Evaluation of catalepsy was made according to Arnt (Eur. J. Pharmacol. 90, 47-55 (1983)). Catalepsy is an indicator of dopamine receptor blockade in vivo which corrolates to the clinical potency of the classical neuroleptics. However, catalepsy is also considered to indicate extrapyramidal side effects (Arnt, J. et al.; Neuropharrnacology 1981, 20, 1331-1334.
In this test test compound is given s.c. in different doses. The rat (170-240 g )is placed on a vertical wire mesh (mesh diameter 12 mm ). The rat is considered cataleptogenic if it remains immobile for more than 15 sec. The maximum number of rats showing catalepsy within the first 6 hours is recorded for each dose group. The results are recorded in fractions and an ED50 value is calculated by means of log-probit analysis.
The following corresponding 1-aryl-3-(1,2,3,6-tetrahydropyridyl)- or 1-aryl-3-(piperazinyl)indole derivatives which are analogues of Lu 23-174 and Compound No 12, respectively, were included in the test as comparing compounds:
A) 1-(4-Fluorophenyl)-3-[1-[2-(2-imidazolidinon-1-yl)ethyl]-1,2,3,6-tetrahydropyridin-4-yl]-5-trifluoromethyl-1H-indole
B) 5-Chloro-1-(4-fluorophenyl)-3-[1-[2-(2-imidazolidinon-1-yl)ethyl]-1,2,3,6- tetrahydro-4-pyridyl]-1H-indole
C) 5-Chloro-1-(4-fluorophenyl)-3-[4-[2-(2-imidazolidinon-1-yl)ethyl]-1-piperazinyl]-1H-indole

The nature of data set [2]: Light/dark discrimination test in rats. The format is in vivo, rat (Wistar WU). The settings on record: rat, s.c.; observation 2h. The protocol: The test was carried out similarly to the test in mice described above, however modified in accodance with F. C. Colpaert et al., Psychopharmacology (1985) 86: 45-54. The test used Wistar WU rats.
Data set [3] is described as follows: Light/dark discrimination test in mice (two compartment activity box). The format is in vivo, mouse (male albino BKW). As to conditions: mouse, i.p. The protocol: This test was carried out in accordance with the method described in Costall et al. Br. J. Pharmacol. 90 275P (1987).
The test was conducted using a two compartment activity box in which the actions of anxiolytic compounds to reduce aversion against a brightly-lit environment may be readily detected. The box is designed as an open-top experimental box (45*27*27 cm) one third of which was partitioned from the rest, painted black and illuminated with red light. The remainder of the box was painted white and brightly illuminated (1000 W). The floor of each area was lined into squares. Behavioural changes were determined for each area from video recordings for periods of 40 min. Data obtained from dose groups of 5 animals (male albino BKW mice, 25-30 g ) were analysed using single factor analysis of variance, and Dunnett's t-test. Test compounds were given intrapentoneally 45 min before testing.
The results are given in the following Table 2 as minimum doses (mg/kg i.p.) tested showing effect (p<0.001). The behavioural change used were exploratory rearings and line crossings.
The known substances diazepam, and ondansetron were included in the test for comparison purposes.

Setting [4] is: 2 h, attack latency threshold 90 sec., 120 min pretreatment, read-out: ED50, threshold 90 sec., 120 min pretreatment.
The mark [5] stands for this setting: 2 h, attack latency threshold 180 sec., 120 min pretreatment, read-out: ED50, threshold 180 sec., 120 min pretreatment.
[6] abbreviates: 0.5 h, attack latency threshold 90 sec., 30 min pretreatment, read-out: ED50, threshold 90 sec., 30 min pretreatment.
The mark [7] stands for this setting: 0.5 h, attack latency threshold 180 sec., 30 min pretreatment, read-out: ED50, threshold 180 sec., 30 min pretreatment.

Entries after “also recorded” stand apart in the source; their conditions may differ. Like-named read-outs stand apart in the source and are kept apart here. Where only a bound is given, the exact number is not on record here.

For `Cc1ccc2c(c1)c(C1CCN(CCN3CCNC3=O)CC1)cn2-c1ccc(F)cc1` [Compound 24, 1-(4-fluorophenyl)-3-[1-[2-(2-imidazolidinon-1-yl)ethyl]-4-piperidyl]-5-methyl-1H-indole], the results for the ED50 in data set [1] (setting [4]) and in data set [1] (setting [5]) were 3.2 µmol/kg and 2.5 µmol/kg, respectively. For the same molecule, the ED50 at 6 h in the data set “in vivo” (rat) is greater than 95 µmol/kg.
Consider `O=C1NCCN1CCN1CCC(c2cn(-c3ccc(F)cc3)c3ccc(Cl)cc23)CC1` [Lu 23-174, 5-chloro-1-(4-fluorophenyl)-3-[1-[2-(2-imidazolidinon-1-yl)ethyl]-4-piperidyl]-1H-indole], for which the ED50 in data set [1] (setting [6]) is 4.4 µmol/kg; in data set [1] (setting [7]) it was 3.2 µmol/kg. Also, the “Effect in light/dark discrimination test in rats (active dose in words)” value in data set [2] is “showed effect in nano molar doses/kg”. Further, in “in vivo” (rat), the ED50 at 6 h is greater than 98 µmol/kg.
For the molecule `O=C1NCCN1CCN1CCC(c2cn(-c3ccc(F)cc3)c3ccc(F)cc23)CC1` [Compound 16, 5-fluoro-1-(4-fluorophenyl)-3-[1-[2-(2-imidazolidinon-1-yl)ethyl]-4-piperidyl]-1H-indole], the 50% effective dose (ED50) in data set [1] (setting [4]) worked out at 2.1 µmol/kg; in data set [1] (setting [5]), 1.6 µmol/kg. For the same molecule, the ED50 at 6 h in “in vivo” (rat) was greater than 78 µmol/kg.
Regarding `O=C1CC2(CCCC2)CC(=O)N1CCCCN1CCN(c2ncccn2)CC1` [Buspirone], the values for the ED50 in data set [1] (setting [6]) and in data set [1] (setting [7]) were 9.6 µmol/kg and 5.4 µmol/kg, respectively.
In the data set “in vivo” (rat), `O=C1NCCN1CCN1CCC(c2cn(-c3ccc(F)cc3)c3ccc(C(F)(F)F)cc23)CC1` [Compound 12, 1-(4-fluorophenyl)-3-[1-[2-(2-imidazolidinon-1-yl)ethyl]-4-piperidyl]-5-trifluomethyl-1H-indole] returned a median effective dose (ED50) at 6 h of 38 µmol/kg.
Regarding `Cc1nc2sccn2c(=O)c1CCN1CCC(=C(c2ccc(F)cc2)c2ccc(F)cc2)CC1` [Ritanserin], the ED50 was greater than 21 µmol/kg in data set [1] (setting [6]), greater than 21 µmol/kg in data set [1] (setting [7]), greater than 10 µmol/kg in data set [1] (setting [4]) and greater than 10 µmol/kg in data set [1] (setting [5]). Also, in data set [1] (mouse, in vivo), the “Effect in the aggression test” value is on record as “showed no effect”. Besides, the “Effect in light/dark discrimination test in rats (active dose in words)” value in data set [2] is given as “only active in μmolar doses/kg”. Further, in data set [3], the “Effect in light/dark discrimination test in mice” value was “did not show effect; also recorded: inactive”.
As for `O=C1NCCN1CCN1CC=C(c2cn(-c3ccc(F)cc3)c3ccc(C(F)(F)F)cc23)CC1` [A, 1-(4-Fluorophenyl)-3-[1-[2-(2-imidazolidinon-1-yl)ethyl]-1,2,3,6-tetrahydropyridin-4-yl]-5-trifluoromethyl-1H-indole, reference compound], the ED50 at 6 h in “in vivo” (in vivo) is 0.49 µmol/kg.
With `O=C1NCCN1CCN1CCC(c2cn(-c3ccc(F)cc3)c3ccccc23)CC1` [Lu 23-086, 1-(4-fluorophenyl)-3-[1-[2-(2-imidazolidinon-1-yl)ethyl]-4-piperidyl]-1H-indole], the ED50 in data set [1] (setting [4]) came to 1.9 µmol/kg; in data set [1] (setting [5]) it was 1.7 µmol/kg.
`CC(C)N1CCN(CCN2CCC(c3cn(-c4ccc(F)cc4)c4ccc(Cl)cc34)CC2)C1=O` [Compound 14, 5-chloro-1-(4-fluorophenyl)-3-[1-[2-[3-(2-propyl)-2-imidazolidinon-1-yl]ethyl]-4-piperidyl]-1H-indole] registered a median effective dose (ED50) at 6 h in the data set “in vivo” (rat) greater than 69 µmol/kg.
On to `O=C1CCCN1CCN1CCC(c2cn(-c3ccc(F)cc3)c3ccc(Cl)cc23)CC1` [Compound 4, 5-chloro-1-(4-fluorophenyl)-3-[1-[2-(2-pyrrolidinon-1-yl)ethyl]-4-piperidyl]-1H-indole], for which the 50% effect level in “in vivo” (in vivo) (ED50 at 6 h) was put at a dose of 23 µmol/kg.
Molecule `O=C1NCCN1CCN1CCN(c2cn(-c3ccc(F)cc3)c3ccc(Cl)cc23)CC1` [C, 5-Chloro-1-(4-fluorophenyl)-3-[4-[2-(2-imidazolidinon-1-yl)ethyl]-1-piperazinyl]-1H-indole, reference compound] displayed an ED50 at 6 h in the data set “in vivo” (rat) of 4.5 µmol/kg.
Consider `O=C1NCCN1CCN1CC=C(c2cn(-c3ccc(F)cc3)c3ccc(Cl)cc23)CC1` [B, 5-Chloro-1-(4-fluorophenyl)-3-[1-[2-(2-imidazolidinon-1-yl)ethyl]-1,2,3,6-tetrahydro-4-pyridyl]-1H-indole, reference compound], for which the ED50 at 6 h in “in vivo” (in vivo) came to 2.2 µmol/kg.
The same measure, in the same setting: then `CN1CCN(CCN2CCC(c3cn(-c4ccc(F)cc4)c4ccc(Cl)cc34)CC2)C1=O` [Compound 3, 5-chloro-1-(4-fluorophenyl)-3-[1-[2-(3-methyl-2-imidazolidinon-1-yl)ethyl]-4-piperidyl]1H-indole], with 31 µmol/kg.
Regarding `CN1C(=O)CN=C(c2ccccc2)c2cc(Cl)ccc21` [Diazepam], the ED50 is 26 µmol/kg in data set [1] (0.5 h, read-out: ED50, threshold 90 sec., 30 min pretreatment) and 15 µmol/kg in data set [1] (0.5 h, read-out: ED50, threshold 180 sec., 30 min pretreatment).
Consider `O=C1OCCN1CCN1CCC(c2cn(-c3ccc(F)cc3)c3ccc(Cl)cc23)CC1` [Compound 2, 5-chloro-1-(4-fluorophenyl)-3-[1-[2-(2-oxazolidinon-1-yl)ethyl]-4-piperidyl]-1H-indole], for which the ED50 at 6 h in “in vivo” (rat) is greater than 18 µmol/kg.

As usually defined, the ED50 is the dose that gives a 50% effect, or the effect in half of the subjects.
